{"source": "paper PMC6249242", "about": "“Metabolic engineering of Escherichia coli for de novo biosynthesis of vitamin B12” (Nature Communications, 2018)", "molecules": {"B1": {"name": "RcCobC (Rhodobacter capsulatus SB 1003) (protein)", "chain": "MRDHGGNSDAARAQYGGEDWIDLSTGINRQPWPVPDLPAHVWTDLPTATAKAALLDAAAAAFGTPAPGVALAGAQQAIQLIPRLWAPGRARVLGPTYNEHAAALRAAGWQVEEVSTLGALAGADLAVVVNPNNPDGQRHPAAALRALSLQVGRLVVDESFADASPAASVTAKASRRMLVLRSFGKFYGLAGLRLGFVFADAATVAALSEMAGPWPVSGPALEIGRRALLDRNWAMATALRLGAETMRMDALAARAGWRLVGGTALFRTYATPDAAAAQDHLARARIWSRVFPYAADWLRLGLPGNESEWMRLEKALTNEL"}}, "key": {"BluE": {"target": "T1, BluE (Rhodobacter capsulatus, UniProt D5AV17)", "T1 construct": "gene RCAP_rcc02055", "T1 sequence (D5AV17 entry or part of it)": "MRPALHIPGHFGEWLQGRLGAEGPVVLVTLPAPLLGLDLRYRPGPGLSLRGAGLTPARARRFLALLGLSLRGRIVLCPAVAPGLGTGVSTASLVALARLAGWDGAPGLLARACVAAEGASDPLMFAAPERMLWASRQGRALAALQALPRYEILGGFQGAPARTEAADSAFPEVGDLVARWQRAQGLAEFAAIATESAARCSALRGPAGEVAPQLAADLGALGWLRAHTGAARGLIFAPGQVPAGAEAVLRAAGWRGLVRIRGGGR", "experiment": "crude enzyme kinase assay, LC-MS of L-threonine phosphate; also in vivo HPLC", "assay_type": "biochemical"}, "CobB": {"target": "CobB (Rhodobacter capsulatus, UniProt O68108)", "sequence (O68108 whole entry)": "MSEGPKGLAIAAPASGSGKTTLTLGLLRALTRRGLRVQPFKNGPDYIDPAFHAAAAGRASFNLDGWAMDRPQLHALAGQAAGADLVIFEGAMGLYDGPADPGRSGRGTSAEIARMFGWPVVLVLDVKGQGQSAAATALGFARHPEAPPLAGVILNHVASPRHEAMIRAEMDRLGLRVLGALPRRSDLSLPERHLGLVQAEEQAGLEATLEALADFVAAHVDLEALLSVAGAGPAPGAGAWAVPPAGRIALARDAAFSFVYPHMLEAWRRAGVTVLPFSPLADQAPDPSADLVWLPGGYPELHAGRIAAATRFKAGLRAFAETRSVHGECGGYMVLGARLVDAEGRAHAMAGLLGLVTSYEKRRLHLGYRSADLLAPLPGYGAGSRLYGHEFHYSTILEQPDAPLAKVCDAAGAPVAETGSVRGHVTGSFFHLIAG", "experiment": "in vitro amidation, LC-MS of HBAD", "assay_type": "biochemical"}, "purified protein": {"substrate": "C[C@@H](OP(=O)(O)O)[C@H](N)C(=O)O", "experiment": "purified protein", "settings": "pH 6.8 PIPES, 37 °C, 500 µM pyridoxal phosphate (standard assay), substrate taken from the assay description"}}, "data": [{"molecule": "C[C@@H](O)[C@H](N)C(=O)O", "note": "[L-threonine]", "values": [{"measurement": "crude enzyme kinase assay, LC-MS of L-threonine phosphate; also in vivo HPLC", "setting": "BluE", "value": "crude BluE activity was confirmed via an in vitro assay"}]}, {"molecule": "C/C1=C2N=C(/C=C3\\N/C(=C(/C)C4=NC(C)(C5N=C1C(C)(CCC(=O)O)C5CC(=O)O)C(C)(CC(=O)O)C4CCC(=O)O)C(C)(CC(=O)O)C3CCC(=O)O)C(C)(C)C/2CCC(=O)O", "note": "(stereo not drawn) [hydrogenobyrinic acid]", "values": [{"measurement": "in vitro amidation, LC-MS of HBAD", "setting": "CobB", "value": "it was completely converted to HBAD by CobB enzyme from R. capsulatus in vitro"}]}, {"molecule": "B1", "values": [{"measurement": "Km", "setting": "purified protein", "value": 1890, "unit": "µM"}]}]}
